# Assay results from paper PMC11416981 (Frontiers in Pharmacology, 2024).
# How the values were obtained:
# Assay type in all cases: in vivo, humans
# [1] = test system: PDAP patients with gram-positive bacteria cultured from PD effluent; assay: Efficacy of intraperitoneal teicoplanin in PDAP patients (PD effluent analysis, clinical symptoms, infection markers)
# Description: According to the ISPD guidelines recommendation ([Li et al., 2022]), doctors can establish a diagnosis of PDAP. […] Participants should not have taken part in other clinical trials in the past 3 months, understand the trial’s purpose, willingly participate, and sign informed consent forms.
# (§1) According to the patient’s PD plan, teicoplanin for injection was evenly distributed into each bag of PD fluid before the patient’s PD procedure to ensure that each bag of dialysis fluid entering the peritoneal cavity contained teicoplanin. […] The number of dialysis times per day is determined by the peritoneal function of each peritoneal dialysis patient.
# […] This assessment considered primary efficacy endpoints, secondary efficacy endpoints, and primary safety endpoints. The primary efficacy endpoints in this study are: 1) White blood cell count in PD effluent (p-WBC) < 100 × 10^6/L; 2) Percentage of neutrophilic granulocytes in PD effluent (p-NE%) < 50%; 3) Resolution of abdominal pain, absence of fever, and clarity of PD effluent in clinical signs of patients. According to ISPD guidelines, meeting all three criteria or two of the three constitutes a cure, while meeting one is classified as partial relief. The efficacy calculation involves determining the proportion of cured and partially relieved patients among the total.
# (§2) The secondary efficacy endpoints of this study mainly involve infectious markers: C-reactive protein (CRP) and procalcitonin (PCT); Hematological parameters: white blood cell count (b-WBC), blood neutrophilic granulocyte percentage (b-NE%), and hemoglobin (Hb); Renal function markers: serum creatinine (Scr), urea, uric acid (UA), and albumin (ALB).
# However, most patients show significant improvement in clinical symptoms within 1 week.
# [2] = Serum teicoplanin concentration by HPLC; settings: Uncured group n = 7, serum collected on the 4th day prior to drug administration, intraperitoneal 0.2 g daily, HPLC-UV 215 nm, mean ± SD
# Description: (§3) All patients received peritoneal dialysate and serum samples. […] Serum samples were collected on the 4th day prior to drug administration. Blood samples were centrifuged at 3,000 rpm for 10 minutes. The upper serum layer was then transferred into labeled EP tubes and stored at −80°C. Peritoneal fluid samples were collected daily after the PD procedure. The peritoneal fluid bag was disinfected with iodine, and peritoneal effluent was withdrawn using a sterile syringe and stored at −80°C.
# (§4) An Agilent Zorbax SB-C18 column (4.6 × 250 mm, 5 μm) was used. Methyl p-hydroxybenzoate served as the internal standard. The column temperature was kept at 35°C. The mobile phase comprised acetonitrile - 0.01 mol/L potassium dihydrogen phosphate (26:74, v/v, pH = 2.8 adjusted by phosphoric acid). A flow rate of 1 mL/min was set, with an injection volume of 40 μL. UV detection was conducted at 215 nm, while the column temperature remained at 40°C. The pretreatment and chromatographic methods for detecting teicoplanin in serum and PD effluent are the same (Supplement Material).
# PDAP patients = assay: Renal function, blood lipid and electrolyte indicators before and after teicoplanin treatment; settings: post-treatment group n = 36
# Description: as §2
# There were no significant changes in indicators such as Scr after medication compared to before treatment, and there was no significant difference in the patients' renal function (Table S3).
# [3] = Teicoplanin concentration in peritoneal dialysis effluent (PDE) by HPLC
# Description: as §1, §3, §4
# Using multiple 1.5 mL centrifuge tubes, 360 μL of bovine serum is added to each tube. Subsequently, 40 μL of the respective standard curve series working solution, 30 μL of the internal standard solution, and 600 μL of acetonitrile are added. The contents are thoroughly mixed by vortexing, centrifuged at 14,000 rpm for 8 minutes, and 100 μL of the supernatant is transferred to sample vials for HPLC analysis.
# Perform linear regression fitting using the weighted (1/X^2) least squares method, resulting in the standard curve regression equation y = 0.0262x-0.0124 (R^2 = 0.9994).
# [4] = Uncured group n = 7, mean (Q25, Q75)
# [5] = Uncured group n = 7, mean ± SD, SD
# [6] = number of 36 PDAP patients, intraperitoneal 0.2 g daily, after 7 days
# [7] = Cured group n = 29, intraperitoneal 0.2 g daily, HPLC-UV, mean (Q25, Q75)
# [8] = Cured group n = 29, intraperitoneal 0.2 g daily, HPLC-UV, mean ± SD, SD
# [9] = Uncured group n = 7, intraperitoneal 0.2 g daily, HPLC-UV, mean ± SD, SD
substance,measurement,setting,value
teicoplanin,CRP after treatment,[1]; [4],"34.00 (5.20, 69.38) mg/L"
same,PCT after treatment,[1]; [4],"0.66 (0.29, 2.87) ng/mL"
same,p-WBC after treatment,[1]; [4],"159.00 (112.5, 1023.5) *10^6/L"
same,b-NE% after treatment,[1]; [5],71.08 ± 25.08%
same,b-WBC after treatment,[1]; [5],6.40 ± 2.28 *10^9/L
same,p-NE% after treatment,[1]; [5],58.86 ± 33.91%
same,Fever,"[1]; cases (%) in post-treatment group n = 36, pre-treatment 8 (22.3%)",1 (2.7%)
same,Diarrhea,"[1]; cases (%) in post-treatment group n = 36, pre-treatment 9 (25%)",1 (2.7%)
same,Peritoneal dialysate turbidity,"[1]; cases (%) in post-treatment group n = 36, pre-treatment 26 (72.2%)",2 (5.6%)
same,Abdominal pain,"[1]; cases (%) in post-treatment group n = 36, pre-treatment 31 (86.1%)",3 (8.3%)
same,overall treatment success rate,"[1]; cured plus partial remission among 36 PDAP patients, intraperitoneal 0.2 g daily, assessed after 7 days",88.9%
same,patients with treatment failure,"[1]; number of 36 PDAP patients (1 died, 3 permanently transitioned to hemodialysis)",4
same,patients cured,[1]; [6],29
same,patients in partial remission,[1]; [6],3
same,p-Lym%,"[1]; post-treatment group n = 36, after 7 days, mean (Q25, Q75), pre-treatment 14.55 (9.85, 29.1)","72.85 (45.95, 86.45) %"
same,p-Lym (lymphocyte count in PD effluent),"[1]; post-treatment group n = 36, after 7 days, mean (Q25, Q75), pre-treatment 196.00 (91.15, 444.62)","14.00 (6.25, 49.75) *10^6/L"
same,p-NE,"[1]; post-treatment group n = 36, after 7 days, mean (Q25, Q75), pre-treatment 1099.60 (418.57, 3333.62)","4.00 (1.00, 18.00) *10^6/L"
same,p-WBC (white blood cell count in PD effluent),"[1]; post-treatment group n = 36, after 7 days, mean (Q25, Q75), pre-treatment 1333.5 (573.50, 4475.00)","28.00 (10.25, 75.00) *10^6/L"
same,PCT,"[1]; secondary indicator, post-treatment group n = 36, after 14 days, mean (Q25, Q75), pre-treatment 0.66 (0.30, 2.99)","0.61 (0.29, 1.15) ng/mL"
same,b-WBC,"[1]; secondary indicator, post-treatment group n = 36, after 14 days, mean (Q25, Q75), pre-treatment 6.40 (5.32, 8.00)","6.20 (5.32, 8.85) *10^9/L"
same,CRP,"[1]; secondary indicator, post-treatment group n = 36, after 14 days, mean (Q25, Q75), pre-treatment 37.50 (10.00, 101.27)","8.30 (3.55, 19.33) mg/L"
same,b-NE%,"[1]; secondary indicator, post-treatment group n = 36, after 14 days, mean (Q25, Q75), pre-treatment 77.60 (67.42, 84.95)","69.10 (59.32, 72.60) %"
same,Serum teicoplanin concentration,[2],10.85 ± 4.92
same,ALB,"PDAP patients; mean ± SD, pre-treatment 28.66 ± 4.99, SD",28.55 ± 5.97 g/L
same,Scr,"PDAP patients; mean ± SD, pre-treatment 772.45 ± 320.15, SD",739.46 ± 312.14 µmol/L
same,HDL,PDAP patients; pre-treatment 0.88 ± 0.38,0.76 ± 0.55 mmol/L
same,TG,"PDAP patients; pre-treatment 1.25 (1.02, 1.74)","1.21 (1.01, 2.27) mmol/L"
same,LDL,PDAP patients; pre-treatment 1.91 ± 0.81,1.49 ± 0.69 mmol/L
same,Ca,"PDAP patients; pre-treatment 2.02 (1.86, 2.18)","2.08 (1.81, 2.26) mmol/L"
same,TC,PDAP patients; pre-treatment 3.49 ± 1.02,2.97 ± 0.85 mmol/L
same,eGFR,"PDAP patients; pre-treatment 6.35 (4.72, 8.52)","7.30 (4.90, 8.50) mL/min/1.73m^2"
same,Urea,"PDAP patients; pre-treatment 16.20 (12.55, 21.46)","16.00 (10.20, 21.30) mmol/L"
same,Na,PDAP patients; pre-treatment 134.75 ± 5.25,136.40 ± 5.49 mmol/L
same,PDE teicoplanin concentration on Day 5,"[3]; 24-h urine volume 0–200 mL, n = 17, M50 (M25, M75)","12.85 (8.12, 21.23) mg/L"
same,PDE teicoplanin concentration on Day 5,"[3]; 24-h urine volume 201–537 mL, n = 10, M50 (M25, M75)","10.17 (7.38, 24.59) mg/L"
same,PDE teicoplanin concentration on Day 5,"[3]; 24-h urine volume >537 mL, n = 9, M50 (M25, M75)","23.16 (18.89, 39.45) mg/L"
same,Day 3 PDE teicoplanin concentration,[3]; [7],"14.17 (6.80, 22.93) mg/L"
same,Day 7 PDE teicoplanin concentration,[3]; [7],"20.89 (9.45, 30.23) mg/L"
same,Day 1 PDE teicoplanin concentration,[3]; [8],13.65 ± 3.26 mg/L
same,Day 5 PDE teicoplanin concentration,[3]; [8],18.98 ± 2.43 mg/L
same,Day 7 PDE teicoplanin concentration,"[3]; Uncured group n = 7, intraperitoneal 0.2 g daily, HPLC-UV, mean (Q25, Q75)","11.43 (8.42, 13.21) mg/L"
same,Day 1 PDE teicoplanin concentration,[3]; [9],11.48 ± 3.39 mg/L
same,Day 5 PDE teicoplanin concentration,[3]; [9],12.07 ± 2.68 mg/L
same,day-5 PDE teicoplanin concentration,"[3]; age 49 ~ 61 years old, n = 9, mean ± SD, SD",10.18 ± 1.68 mg/L
same,day-5 PDE teicoplanin concentration,"[3]; age 62 ~ 71 years old, n = 9, mean ± SD, SD",20.19 ± 8.62 mg/L
same,day-5 PDE teicoplanin concentration,"[3]; age > 71 years old, n = 9, mean ± SD, SD",29.46 ± 12.29 mg/L
same,day-5 PDE teicoplanin concentration,"[3]; age ≤ 48 years old, n = 9, mean ± SD, SD",19.46 ± 10.28 mg/L
same,day-5 PDE teicoplanin concentration,"[3]; body weight 54-60 kg, n = 9, mean ± SD, SD",20.19 ± 6.74 mg/L
same,day-5 PDE teicoplanin concentration,"[3]; body weight 61-76.5 kg, n = 8, mean ± SD, SD",15.37 ± 6.39 mg/L
same,day-5 PDE teicoplanin concentration,"[3]; body weight ≤ 53 kg, n = 10, mean ± SD, SD",24.23 ± 7.34 mg/L
same,day-5 PDE teicoplanin concentration,"[3]; body weight ≥ 76.5kg, n = 9, mean ± SD, SD",19.27 ± 7.38 mg/L
same,day-5 PDE teicoplanin concentration,"[3]; both G1.5% and G2.5% low calcium peritoneal dialysate, n = 8, mean ± SD, SD",19.47 ± 9.45 mg/L
same,PDE teicoplanin concentration on Day 5,"[3]; daily PD frequency 1–3 times, n = 5, mean ± SD, SD",38.71 ± 16.36 mg/L
same,PDE teicoplanin concentration on Day 5,"[3]; daily PD frequency 4 times, n = 18, mean ± SD, SD",12.89 ± 7.28 mg/L
same,PDE teicoplanin concentration on Day 5,"[3]; daily PD frequency 5–6 times, n = 13, mean ± SD, SD",17.67 ± 10.23 mg/L
same,day-5 PDE teicoplanin concentration,"[3]; eGFR 4.726 ~ 6.35 mL/min, n = 9, mean ± SD, SD",28.39 ± 11.47 mg/L
same,day-5 PDE teicoplanin concentration,"[3]; eGFR 6.36 ~ 8.524 mL/min, n = 9, mean ± SD, SD",18.26 ± 7.45 mg/L
same,day-5 PDE teicoplanin concentration,"[3]; eGFR ≤ 4.725 mL/min, n = 9, mean ± SD, SD",16.05 ± 5.28 mg/L
same,day-5 PDE teicoplanin concentration,"[3]; eGFR ≥ 8.525 mL/min, n = 9, mean ± SD, SD",21.21 ± 9.21 mg/L
same,day-5 PDE teicoplanin concentration,"[3]; females, n = 14, mean ± SD, SD",18.22 ± 6.29 mg/L
same,day-5 PDE teicoplanin concentration,"[3]; fibrinogen 4.2 to 5.2 g/L, n = 9, mean ± SD, SD",20.72 ± 8.16 mg/L
same,day-5 PDE teicoplanin concentration,"[3]; fibrinogen 5.3 to 6.54 g/L, n = 7, mean ± SD, SD",17.35 ± 6.45 mg/L
same,day-5 PDE teicoplanin concentration,"[3]; fibrinogen ≤ 4.1 g/L, n = 9, mean ± SD, SD",30.56 ± 12.32 mg/L
same,day-5 PDE teicoplanin concentration,"[3]; fibrinogen ≥ 6.55 g/L, n = 11, mean ± SD, SD",14.87 ± 7.07 mg/L
same,day-5 PDE teicoplanin concentration,"[3]; males, n = 22, mean ± SD, SD",19.25 ± 7.89 mg/L
same,day-5 PDE teicoplanin concentration,"[3]; only G1.5% low calcium peritoneal dialysate, n = 10, mean ± SD, SD",19.24 ± 10.23 mg/L
same,day-5 PDE teicoplanin concentration,"[3]; only G2.5% low calcium peritoneal dialysate, n = 18, mean ± SD, SD",24.48 ± 9.23 mg/L
